Laboratory results published in PubChem BioAssay (NCI).
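Tested at 5 concentrations; 48 h exposure; 96-well plates; endpoints linearly interpolated, else capped at highest concentration. Definition used: TGI = concentration required for complete inhibition of growth.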

What was measured:
Experiment in all cases: inhibition of tumour cell growth, NCI panel, 48 h
786-0 renal = tested on: 786-0 renal
NCI-H522 lung = tested on: NCI-H522 lung
HOP-62 NSCLC = tested on: HOP-62 NSCLC
LXFL 529 NSCLC = tested on: LXFL 529 NSCLC
KM20L2 colon = tested on: KM20L2 colon
NCI-H226 lung = tested on: NCI-H226 lung
NCI-H460 lung = tested on: NCI-H460 lung
SR leukemia = tested on: SR leukemia
EKVX NSCLC = tested on: EKVX NSCLC
RXF 393 renal = tested on: RXF 393 renal
A498 renal = tested on: A498 renal
LOX IMVI melanoma = tested on: LOX IMVI melanoma
OVCAR-4 ovarian = tested on: OVCAR-4 ovarian
SNB-78 CNS = tested on: SNB-78 CNS
HT29 colon = tested on: HT29 colon
UACC-257 melanoma = tested on: UACC-257 melanoma
HOP-18 NSCLC = tested on: HOP-18 NSCLC
CCRF-CEM leukemia = tested on: CCRF-CEM leukemia
ACHN renal = tested on: ACHN renal
OVCAR-5 ovarian = tested on: OVCAR-5 ovarian
K-562 leukemia = tested on: K-562 leukemia
SK-MEL-2 melanoma = tested on: SK-MEL-2 melanoma
NCI-H23 lung = tested on: NCI-H23 lung
CAKI-1 renal = tested on: CAKI-1 renal
MALME-3M melanoma = tested on: MALME-3M melanoma
SF-268 CNS = tested on: SF-268 CNS
IGROV1 ovarian = tested on: IGROV1 ovarian
HCT-15 colon = tested on: HCT-15 colon
DMS 273 small cell lung = tested on: DMS 273 small cell lung
SK-MEL-28 melanoma = tested on: SK-MEL-28 melanoma
HOP-92 NSCLC = tested on: HOP-92 NSCLC
SNB-19 CNS = tested on: SNB-19 CNS
SK-OV-3 ovarian = tested on: SK-OV-3 ovarian
HL-60(TB) leukemia = tested on: HL-60(TB) leukemia
U251 CNS = tested on: U251 CNS
M19-MEL melanoma = tested on: M19-MEL melanoma
COLO 205 colon = tested on: COLO 205 colon
SW-620 colon = tested on: SW-620 colon
A549 NSCLC = tested on: A549 NSCLC
OVCAR-8 ovarian = tested on: OVCAR-8 ovarian
HCC-2998 colon = tested on: HCC-2998 colon
HCT-116 colon = tested on: HCT-116 colon
TK-10 renal = tested on: TK-10 renal
MOLT-4 leukemia = tested on: MOLT-4 leukemia
SF-295 CNS = tested on: SF-295 CNS
OVCAR-3 ovarian = tested on: OVCAR-3 ovarian
KM12 colon = tested on: KM12 colon
M14 melanoma = tested on: M14 melanoma
RPMI-8226 leukemia = tested on: RPMI-8226 leukemia
UO-31 renal = tested on: UO-31 renal
SF-539 CNS = tested on: SF-539 CNS
UACC-62 melanoma = tested on: UACC-62 melanoma
SNB-75 CNS = tested on: SNB-75 CNS
DLD-1 colon = tested on: DLD-1 colon
DMS 114 small cell lung = tested on: DMS 114 small cell lung
SK-MEL-5 melanoma = tested on: SK-MEL-5 melanoma
SN12C renal = tested on: SN12C renal

CC1(C)C(=O)CCC(=O)C(C)(C)C2=CC=C(O2)C(C)(C)C(=O)CCC(=O)C(C)(C)C2=CC=C1O2
TGI (786-0 renal): > 100 µM
TGI (NCI-H522 lung): > 100 µM
TGI (HOP-62 NSCLC): > 100 µM
TGI (LXFL 529 NSCLC): > 100 µM
TGI (KM20L2 colon): > 100 µM
TGI (NCI-H226 lung): > 100 µM
TGI (NCI-H460 lung): > 100 µM
TGI (SR leukemia): > 100 µM
TGI (EKVX NSCLC): > 100 µM
TGI (RXF 393 renal): > 100 µM
TGI (A498 renal): > 100 µM
TGI (LOX IMVI melanoma): > 100 µM
TGI (OVCAR-4 ovarian): > 100 µM
TGI (SNB-78 CNS): > 100 µM
TGI (HT29 colon): > 100 µM
TGI (UACC-257 melanoma): > 100 µM
TGI (HOP-18 NSCLC): > 100 µM
TGI (CCRF-CEM leukemia): > 100 µM
TGI (ACHN renal): > 100 µM
TGI (OVCAR-5 ovarian): > 100 µM
TGI (K-562 leukemia): > 100 µM
TGI (SK-MEL-2 melanoma): > 100 µM
TGI (NCI-H23 lung): > 100 µM
TGI (CAKI-1 renal): > 100 µM
TGI (MALME-3M melanoma): > 100 µM
TGI (SF-268 CNS): > 100 µM
TGI (IGROV1 ovarian): > 100 µM
TGI (HCT-15 colon): > 100 µM
TGI (DMS 273 small cell lung): > 100 µM
TGI (SK-MEL-28 melanoma): > 100 µM
TGI (HOP-92 NSCLC): > 100 µM
TGI (SNB-19 CNS): > 100 µM
TGI (SK-OV-3 ovarian): > 100 µM
TGI (HL-60(TB) leukemia): > 100 µM
TGI (U251 CNS): > 100 µM
TGI (M19-MEL melanoma): > 100 µM
TGI (COLO 205 colon): > 100 µM
TGI (SW-620 colon): > 100 µM
TGI (A549 NSCLC): > 100 µM
TGI (OVCAR-8 ovarian): > 100 µM
TGI (HCC-2998 colon): > 100 µM
TGI (HCT-116 colon): > 100 µM
TGI (TK-10 renal): > 100 µM
TGI (MOLT-4 leukemia): > 100 µM
TGI (SF-295 CNS): > 100 µM
TGI (OVCAR-3 ovarian): > 100 µM
TGI (KM12 colon): > 100 µM

COc1ccc2c(c1)CC[C@@H]1C2CC[C@]2(C)C(=O)N(CCN3CCCCC3)C(=O)CC12 (stereo partly drawn)
TGI (M14 melanoma): 48.9 µM
TGI (786-0 renal): > 100 µM
TGI (NCI-H522 lung): > 100 µM
TGI (HOP-62 NSCLC): > 100 µM
TGI (LXFL 529 NSCLC): > 100 µM
TGI (KM20L2 colon): > 100 µM
TGI (NCI-H460 lung): > 100 µM
TGI (SR leukemia): > 100 µM
TGI (RXF 393 renal): 99.2 µM
TGI (RPMI-8226 leukemia): > 100 µM
TGI (A498 renal): > 100 µM
TGI (OVCAR-4 ovarian): > 100 µM
TGI (SNB-78 CNS): > 100 µM
TGI (HT29 colon): > 100 µM
TGI (UACC-257 melanoma): 63.4 µM
TGI (UO-31 renal): > 100 µM
TGI (CCRF-CEM leukemia): > 100 µM
TGI (ACHN renal): > 100 µM
TGI (OVCAR-5 ovarian): > 100 µM
TGI (K-562 leukemia): > 100 µM
TGI (SK-MEL-2 melanoma): > 100 µM
TGI (NCI-H23 lung): > 100 µM
TGI (MALME-3M melanoma): > 100 µM
TGI (SF-268 CNS): > 100 µM
TGI (IGROV1 ovarian): > 100 µM
TGI (SK-MEL-28 melanoma): > 100 µM
TGI (HOP-92 NSCLC): > 100 µM
TGI (SNB-19 CNS): > 100 µM
TGI (SK-OV-3 ovarian): > 100 µM
TGI (HL-60(TB) leukemia): 61.1 µM
TGI (U251 CNS): > 100 µM
TGI (SF-539 CNS): > 100 µM
TGI (M19-MEL melanoma): > 100 µM
TGI (COLO 205 colon): > 100 µM
TGI (HCT-116 colon): > 100 µM
TGI (SF-295 CNS): > 100 µM
TGI (UACC-62 melanoma): 41.7 µM
TGI (SNB-75 CNS): > 100 µM
TGI (KM12 colon): > 100 µM

Cc1no[n+]([O-])c1/C=N/NS(=O)(=O)c1ccccc1
TGI (M14 melanoma): > 100 µM
TGI (786-0 renal): > 100 µM
TGI (NCI-H522 lung): > 100 µM
TGI (HOP-62 NSCLC): > 100 µM
TGI (LXFL 529 NSCLC): > 100 µM
TGI (KM20L2 colon): > 100 µM
TGI (SR leukemia): > 100 µM
TGI (EKVX NSCLC): > 100 µM
TGI (DLD-1 colon): > 100 µM
TGI (RXF 393 renal): > 100 µM
TGI (RPMI-8226 leukemia): > 100 µM
TGI (A498 renal): > 100 µM
TGI (OVCAR-4 ovarian): > 100 µM
TGI (HT29 colon): > 100 µM
TGI (UO-31 renal): > 100 µM
TGI (HOP-18 NSCLC): > 100 µM
TGI (OVCAR-5 ovarian): > 100 µM
TGI (K-562 leukemia): > 100 µM
TGI (SK-MEL-2 melanoma): > 100 µM
TGI (NCI-H23 lung): > 100 µM
TGI (CAKI-1 renal): > 100 µM
TGI (MALME-3M melanoma): > 100 µM
TGI (SF-268 CNS): > 100 µM
TGI (DMS 114 small cell lung): > 100 µM
TGI (IGROV1 ovarian): > 100 µM
TGI (SK-MEL-5 melanoma): > 100 µM
TGI (HCT-15 colon): > 100 µM
TGI (SK-MEL-28 melanoma): > 100 µM
TGI (HOP-92 NSCLC): > 100 µM
TGI (SNB-19 CNS): > 100 µM
TGI (SK-OV-3 ovarian): > 100 µM
TGI (HL-60(TB) leukemia): > 100 µM
TGI (U251 CNS): > 100 µM
TGI (SF-539 CNS): > 100 µM
TGI (SN12C renal): > 100 µM
TGI (M19-MEL melanoma): > 100 µM
TGI (COLO 205 colon): > 100 µM
TGI (SW-620 colon): > 100 µM
TGI (A549 NSCLC): > 100 µM
TGI (OVCAR-8 ovarian): > 100 µM
TGI (HCC-2998 colon): > 100 µM
TGI (HCT-116 colon): > 100 µM
TGI (TK-10 renal): > 100 µM
TGI (MOLT-4 leukemia): > 100 µM
TGI (UACC-62 melanoma): > 100 µM
TGI (OVCAR-3 ovarian): > 100 µM
TGI (KM12 colon): > 100 µM
